One may read the IC50 as the concentration needed to halve the response being measured. Low readings indicate greater potency in that assay, high ones weaker potency in that assay. The Ki is a measure of affinity in units of concentration, obtained from inhibition or displacement. As usually defined, the inhibition is the share of the control response that was lost under treatment. Lower therefore signals a response near the control.

One data set addresses T1, Androgen receptor (Homo sapiens, UniProt P10275).
T1 sequence (P10275 whole entry): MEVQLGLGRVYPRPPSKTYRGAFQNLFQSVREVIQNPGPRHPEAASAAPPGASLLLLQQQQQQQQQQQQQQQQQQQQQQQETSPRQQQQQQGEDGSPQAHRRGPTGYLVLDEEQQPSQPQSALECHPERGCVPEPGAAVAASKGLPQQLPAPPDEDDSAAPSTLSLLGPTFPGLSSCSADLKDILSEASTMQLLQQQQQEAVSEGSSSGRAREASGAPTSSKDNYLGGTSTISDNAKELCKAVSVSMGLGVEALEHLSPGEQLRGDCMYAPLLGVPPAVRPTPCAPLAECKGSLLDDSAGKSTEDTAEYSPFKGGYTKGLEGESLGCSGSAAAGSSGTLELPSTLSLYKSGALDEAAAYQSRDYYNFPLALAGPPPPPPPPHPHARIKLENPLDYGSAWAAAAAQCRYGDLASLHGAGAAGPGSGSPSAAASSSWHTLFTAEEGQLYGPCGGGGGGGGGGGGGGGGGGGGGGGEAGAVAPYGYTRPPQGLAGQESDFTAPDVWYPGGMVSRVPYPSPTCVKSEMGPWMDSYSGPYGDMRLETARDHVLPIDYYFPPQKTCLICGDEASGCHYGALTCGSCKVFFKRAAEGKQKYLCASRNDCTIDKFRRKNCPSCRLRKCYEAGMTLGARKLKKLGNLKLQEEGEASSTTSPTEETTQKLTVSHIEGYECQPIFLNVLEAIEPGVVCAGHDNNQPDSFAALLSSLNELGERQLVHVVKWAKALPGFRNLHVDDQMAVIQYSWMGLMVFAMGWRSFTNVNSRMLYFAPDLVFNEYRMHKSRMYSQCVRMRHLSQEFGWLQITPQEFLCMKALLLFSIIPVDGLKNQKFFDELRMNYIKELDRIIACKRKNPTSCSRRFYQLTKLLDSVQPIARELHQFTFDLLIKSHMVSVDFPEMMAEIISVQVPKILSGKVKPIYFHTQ
Put plainly: Antagonist activity at human androgen receptor ligand binding domain expressed in human Huh7 cells after 16 hrs by luciferase reporter gene assay. It counts as cell-based, Huh-7. On the technique in general: In a reporter assay the amount or activity of a reporter protein is the signal.

For a further data set, the target named is T2, Progesterone receptor (Homo sapiens, UniProt P06401).
T2 sequence (P06401 whole entry): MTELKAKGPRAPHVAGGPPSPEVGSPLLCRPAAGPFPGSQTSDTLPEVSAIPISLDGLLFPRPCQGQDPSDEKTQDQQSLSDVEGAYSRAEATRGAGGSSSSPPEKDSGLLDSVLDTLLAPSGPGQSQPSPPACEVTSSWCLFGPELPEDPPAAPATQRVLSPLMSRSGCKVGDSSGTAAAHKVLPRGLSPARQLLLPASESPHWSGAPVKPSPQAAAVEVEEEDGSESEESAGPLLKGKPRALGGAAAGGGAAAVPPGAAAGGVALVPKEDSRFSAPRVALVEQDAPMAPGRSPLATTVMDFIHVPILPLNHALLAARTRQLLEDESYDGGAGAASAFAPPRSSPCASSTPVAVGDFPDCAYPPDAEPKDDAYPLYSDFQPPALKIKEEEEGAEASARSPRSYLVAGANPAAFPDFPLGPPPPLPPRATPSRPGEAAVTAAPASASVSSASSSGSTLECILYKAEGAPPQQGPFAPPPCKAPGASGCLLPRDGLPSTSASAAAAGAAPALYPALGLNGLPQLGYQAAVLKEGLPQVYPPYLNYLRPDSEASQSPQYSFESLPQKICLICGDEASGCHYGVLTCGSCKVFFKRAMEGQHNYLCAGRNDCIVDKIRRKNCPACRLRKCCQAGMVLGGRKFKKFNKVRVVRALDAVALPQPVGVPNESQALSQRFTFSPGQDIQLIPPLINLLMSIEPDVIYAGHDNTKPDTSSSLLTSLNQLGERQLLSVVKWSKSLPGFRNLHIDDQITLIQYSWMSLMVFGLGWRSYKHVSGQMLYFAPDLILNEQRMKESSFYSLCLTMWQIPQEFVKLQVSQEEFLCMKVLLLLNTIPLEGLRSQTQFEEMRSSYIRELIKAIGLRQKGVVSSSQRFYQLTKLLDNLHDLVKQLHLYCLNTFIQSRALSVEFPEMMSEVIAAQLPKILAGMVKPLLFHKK
Put plainly: Displacement of [3H]progesterone from human His-progesterone receptor B after 4 hrs by liquid scintillation counting. In general terms: Loss of bound radioactivity is the signal in a displacement assay; it reports binding, not function.

Data set [1] concerns the target T3, Mineralocorticoid receptor (Homo sapiens, UniProt P08235).
T3 sequence (P08235 whole entry): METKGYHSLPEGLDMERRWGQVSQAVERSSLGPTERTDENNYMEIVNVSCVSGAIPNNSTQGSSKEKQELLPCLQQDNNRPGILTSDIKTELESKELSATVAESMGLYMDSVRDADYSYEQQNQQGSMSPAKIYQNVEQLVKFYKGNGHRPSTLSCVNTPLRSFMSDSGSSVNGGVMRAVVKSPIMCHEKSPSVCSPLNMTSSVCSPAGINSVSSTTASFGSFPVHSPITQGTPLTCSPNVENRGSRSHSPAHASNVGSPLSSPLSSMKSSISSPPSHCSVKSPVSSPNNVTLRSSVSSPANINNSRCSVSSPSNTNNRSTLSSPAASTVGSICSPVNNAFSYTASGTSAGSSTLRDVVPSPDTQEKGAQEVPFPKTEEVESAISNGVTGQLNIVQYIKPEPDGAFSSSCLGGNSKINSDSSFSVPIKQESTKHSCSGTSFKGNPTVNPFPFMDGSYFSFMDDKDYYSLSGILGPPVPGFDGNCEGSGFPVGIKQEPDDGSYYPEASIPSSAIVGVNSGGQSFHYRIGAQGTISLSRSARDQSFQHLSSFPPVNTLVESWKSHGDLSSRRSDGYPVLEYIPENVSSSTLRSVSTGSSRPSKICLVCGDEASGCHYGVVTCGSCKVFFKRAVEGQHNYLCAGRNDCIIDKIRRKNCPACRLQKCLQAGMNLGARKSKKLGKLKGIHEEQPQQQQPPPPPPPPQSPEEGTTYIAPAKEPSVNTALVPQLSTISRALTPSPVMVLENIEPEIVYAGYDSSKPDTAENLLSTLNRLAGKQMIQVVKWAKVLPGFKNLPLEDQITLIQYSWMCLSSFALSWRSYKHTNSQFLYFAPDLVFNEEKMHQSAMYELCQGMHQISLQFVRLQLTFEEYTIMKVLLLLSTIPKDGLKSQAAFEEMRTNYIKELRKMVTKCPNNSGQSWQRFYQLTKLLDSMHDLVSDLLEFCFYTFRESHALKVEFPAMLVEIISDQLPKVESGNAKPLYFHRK
Put plainly: Displacement of [3H]aldosterone from GST-tagged human mineralocorticoid receptor ligand binding domain after 4 hrs by liquid scintillation counting.

A further data set concerns the target CYP2D6 (Homo sapiens, UniProt P10635). Put plainly: Inhibition of CYP2D6 (unknown origin) at 3 uM. It counts as ADME.
In a further data set the test system is Hepatocyte. The experiment in a line: Apparent intrinsic clearance in human hepatocytes assessed per million cells. It is filed as ADME, cell-based.
A further data set deals with CYP3A4 (Homo sapiens, UniProt P08684). Put plainly: Inhibition of CYP3A4 (unknown origin) at 3 uM. It is filed as ADME.
CYP3A4, sequence (P08684 whole entry): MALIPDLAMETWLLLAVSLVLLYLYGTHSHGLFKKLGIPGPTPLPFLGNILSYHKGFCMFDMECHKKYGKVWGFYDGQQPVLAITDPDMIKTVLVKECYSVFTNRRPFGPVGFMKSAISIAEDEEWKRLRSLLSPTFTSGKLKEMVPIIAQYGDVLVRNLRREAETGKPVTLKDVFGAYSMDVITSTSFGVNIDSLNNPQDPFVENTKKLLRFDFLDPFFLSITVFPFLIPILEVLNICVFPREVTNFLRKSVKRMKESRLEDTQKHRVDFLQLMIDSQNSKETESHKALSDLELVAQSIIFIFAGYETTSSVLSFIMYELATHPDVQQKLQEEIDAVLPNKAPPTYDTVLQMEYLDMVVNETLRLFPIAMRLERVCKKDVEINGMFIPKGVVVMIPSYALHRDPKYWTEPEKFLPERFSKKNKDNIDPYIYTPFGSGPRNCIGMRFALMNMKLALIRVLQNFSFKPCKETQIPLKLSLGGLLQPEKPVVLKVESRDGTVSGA

CYP2D6, sequence (P10635 whole entry): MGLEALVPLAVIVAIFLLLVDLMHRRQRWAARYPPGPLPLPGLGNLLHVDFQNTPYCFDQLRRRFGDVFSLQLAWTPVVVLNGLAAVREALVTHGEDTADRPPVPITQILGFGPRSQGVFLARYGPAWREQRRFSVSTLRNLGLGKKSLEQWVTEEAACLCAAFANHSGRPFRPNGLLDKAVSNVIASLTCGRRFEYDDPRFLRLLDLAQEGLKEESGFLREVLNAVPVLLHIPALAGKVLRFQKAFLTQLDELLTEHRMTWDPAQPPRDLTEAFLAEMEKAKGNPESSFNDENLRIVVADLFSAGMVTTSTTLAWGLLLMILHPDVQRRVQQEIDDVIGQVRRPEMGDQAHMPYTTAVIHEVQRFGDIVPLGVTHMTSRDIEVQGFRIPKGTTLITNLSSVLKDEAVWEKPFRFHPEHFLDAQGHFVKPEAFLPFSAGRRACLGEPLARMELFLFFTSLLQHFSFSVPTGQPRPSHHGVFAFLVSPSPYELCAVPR

As for `Cc1cn(-c2ccc(CNS(=O)(=O)c3cc(F)ccc3F)cc2)c(C)n1`, the results for the 50% inhibitory concentration (IC50) (at Androgen receptor; at Progesterone receptor; in data set [1]) were over 10000 nM, over 9210 nM and 191 nM, respectively. Moreover, in data set [1], the affinity, expressed as Ki, was 113 nM. In addition, the inhibition at 3 µM on CYP2D6 and against CYP3A4 was under 5% throughout. Besides, the “CLH(app)” value with Hepatocyte was determined as 9.6 µL/min.

These data come from ChEMBL document CHEMBL3085697, “Design and synthesis of aryl sulfonamide-based nonsteroidal mineralocorticoid receptor antagonists” (Bioorg Med Chem Lett, 2013).
